# Laboratory results taken from ChEMBL document CHEMBL5055685, “Discovery of the First Potent IDO1/IDO2 Dual Inhibitors: A Promising Strategy for Cancer Immunotherapy” (J Med Chem, 2021).
# pIC50: −log10 of the molar value. Activity calls are given as the source filed them. The calls are words filed in the database; no cut-off is given here.
# How the values were obtained:
# [1] = molecular target: Protein kinase C beta type (Homo sapiens) (UniProt P05771); test: Inhibition of PKCb1 (unknown origin) at 1 uM
# PBMC = test: Inhibition of IDO1/IDO2 in IFNgamma/LPS-stimulated human PBMCs assessed as reduction in kynurenine formation at 0.0001 to 10 uM pretreated with compound for 15 mins followed by IFNgamma/LPS stimulation by LC-MS/MS analysis; assay type: tissue-based; settings: dose 0.0001-10 µM
# [2] = molecular target: Homeodomain-interacting protein kinase 2 (Homo sapiens) (UniProt Q9H2X6); test: Inhibition of HIPK2 (unknown origin) at 1 uM
# [3] = molecular target: Leucine-rich repeat serine/threonine-protein kinase 2 (Homo sapiens) (UniProt Q5S007); test: Inhibition of LRRK2 (unknown origin) at 1 uM
# [4] = molecular target: TRAF2 and NCK-interacting protein kinase (Homo sapiens) (UniProt Q9UKE5); test: Inhibition of TNIK (unknown origin) at 1 uM
# Mus musculus [5] = test: In vivo inhibition of IDO2 in BALB/c mouse xenografted with human HCT-116 cells assessed as suppression of IDO2 expression in tumor by immunohistochemical assay; assay type: functional, organism-based
# [6] = molecular target: Activated CDC42 kinase 1 (Homo sapiens) (UniProt Q07912); test: Inhibition of ACK1 (unknown origin) at 1 uM
# [7] = molecular target: Bone morphogenetic protein receptor type-1A (Homo sapiens) (UniProt P36894); test: Inhibition of ALK3 (unknown origin) at 1 uM
# [8] = molecular target: G protein-coupled receptor kinase 4 (Homo sapiens) (UniProt P32298); test: Inhibition of GRK4 (unknown origin) at 1 uM
# [9] = molecular target: LIM domain kinase 1 (Homo sapiens) (UniProt P53667); test: Inhibition of LIMK1 (unknown origin) at 1 uM
# [10] = molecular target: cAMP-dependent protein kinase catalytic subunit gamma (Homo sapiens) (UniProt P22612); test: Inhibition of PKAcg (unknown origin) at 1 uM
# [11] = Protein binding in monkey plasma by equilibrium dialysis by equilibrium dialysis; assay type: ADME, cell-free, Macaca mulatta; settings: rhesus monkey, read-out: PPB (converted)
# [12] = molecular target: Tyrosine-protein kinase Mer (Homo sapiens) (UniProt Q12866); test: Inhibition of c-MER (unknown origin) at 1 uM
# [13] = molecular target: Proto-oncogene tyrosine-protein kinase ROS (Homo sapiens) (UniProt P08922); test: Inhibition of ROS (unknown origin) at 1 uM
# [14] = molecular target: NUAK family SNF1-like kinase 1 (Homo sapiens) (UniProt O60285); test: Inhibition of ARK5 (unknown origin) at 1 uM
# [15] = molecular target: Cyclin-dependent kinase 5/CDK5 activator 1 (Homo sapiens) (UniProt Q00535+Q15078); test: Inhibition of CDK5/p25 (unknown origin) at 1 uM; assay type: protein-complex assay
# [16] = molecular target: Tyrosine-protein kinase Lck (Homo sapiens) (UniProt P06239); test: Inhibition of LCK (unknown origin) at 1 uM
# HeLa = test: Cytotoxicity against human HeLa cells assessed as reduction in cell viability at 1 to 10 uM by CCK8 assay; assay type: functional, cell-based; settings: dose 1-10 µM
# [17] = molecular target: Megakaryocyte-associated tyrosine-protein kinase (Homo sapiens) (UniProt P42679); test: Inhibition of CTK (unknown origin) at 1 uM
# [18] = molecular target: Mitogen-activated protein kinase kinase kinase 19 (Homo sapiens) (UniProt Q56UN5); test: Inhibition of YSK4 (unknown origin) at 1 uM
# [19] = molecular target: Calcium/calmodulin-dependent protein kinase type II subunit gamma (Homo sapiens) (UniProt Q13555); test: Inhibition of CAMK2G (unknown origin) at 1 uM
# [20] = molecular target: Serine/threonine-protein kinase DCLK2 (Homo sapiens) (UniProt Q8N568); test: Inhibition of DCAMKL2 (unknown origin) at 1 uM
# [21] = molecular target: Tyrosine-protein kinase JAK3 (Homo sapiens) (UniProt P52333); test: Inhibition of JAK3 (unknown origin) at 1 uM
# [22] = molecular target: Serine/threonine-protein kinase 26 (Homo sapiens) (UniProt Q9P289); test: Inhibition of MST4 (unknown origin) at 1 uM
# [23] = Metabolic stability in human liver microsomes assessed as rate constant; assay type: ADME, Microsome
# [24] = molecular target: Serine/threonine-protein kinase PAK 2 (Homo sapiens) (UniProt Q13177); test: Inhibition of PAK2 (unknown origin) at 1 uM
# [25] = molecular target: Citron Rho-interacting kinase (Homo sapiens) (UniProt O14578); test: Inhibition of STK21 (unknown origin) at 1 uM
# [26] = molecular target: cAMP-dependent protein kinase catalytic subunit alpha (Homo sapiens) (UniProt P17612); test: Inhibition of PKA (unknown origin) at 1 uM
# [27] = Intrinsic clearance in monkey liver microsomes; assay type: ADME, Macaca mulatta, Microsome; settings: rhesus monkey, read-out: CLH
# CT26 = test: Cytotoxicity against mouse CT26 cells assessed as reduction in cell viability by CCK8 assay; assay type: functional, cell-based
# HCT-116 [28] = test: Antitumor immunity in BALB/c mouse xenografted with human HCT-116 cells assessed as early Treg cells in tumor-draining lymph nodes by propidium iodide staining based flow cytometry analysis (reference value: 7.24 %); assay type: functional
# [29] = molecular target: Receptor tyrosine-protein kinase erbB-4 (Homo sapiens) (UniProt Q15303); test: Inhibition of ERBB4 (unknown origin) at 1 uM
# [30] = Protein binding in Beagle dog plasma by equilibrium dialysis; assay type: ADME, cell-free, Canis lupus familiaris; settings: read-out: PPB (converted)
# [31] = molecular target: Serine/threonine-protein kinase N2 (Homo sapiens) (UniProt Q16513); test: Inhibition of PKN2 (unknown origin) at 1 uM
# [32] = molecular target: Aurora kinase A (Homo sapiens) (UniProt O14965); test: Inhibition of Aurora A (unknown origin) at 1 uM
# [33] = Half life in rat liver microsomes; assay type: ADME, Microsome
# [34] = molecular target: Calcium/calmodulin-dependent protein kinase kinase 2 (Homo sapiens) (UniProt Q96RR4); test: Inhibition of CAMKK2 (unknown origin) at 1 uM
# [35] = molecular target: Mitogen-activated protein kinase kinase kinase 12 (Homo sapiens) (UniProt Q12852); test: Inhibition of DLK (unknown origin) at 1 uM
# [36] = molecular target: Calcium/calmodulin-dependent protein kinase type IV (Homo sapiens) (UniProt Q16566); test: Inhibition of CAMK4 (unknown origin) at 1 uM
# [37] = molecular target: Serine/threonine-protein kinase LATS2 (Homo sapiens) (UniProt Q9NRM7); test: Inhibition of LATS2 (unknown origin) at 1 uM
# [38] = molecular target: CDC7/DBF4 (Cell division cycle 7-related protein kinase/Activator of S phase kinase) (Homo sapiens) (UniProt Q9UBU7+O00311); test: Inhibition of CDC7/DBF4 (unknown origin) at 1 uM; assay type: protein-complex assay
# Mus musculus [39] = test: In vivo inhibition of IDO2 in BALB/c mouse xenografted with human HCT-116 cells assessed as suppression of IDO2 mRNA expression in tumor by quantitative RT-PCR analysis; assay type: functional, organism-based
# HCT-116 [40] = test: Antitumor immunity in BALB/c mouse xenografted with human HCT-116 cells assessed as necrotic Treg cells in tumor-draining lymph nodes by propidium iodide staining based flow cytometry analysis (reference value: 3.91 %); assay type: functional
# Sequence of cAMP-dependent protein kinase catalytic subunit gamma (Homo sapiens) (P22612 2-351 limits assumed): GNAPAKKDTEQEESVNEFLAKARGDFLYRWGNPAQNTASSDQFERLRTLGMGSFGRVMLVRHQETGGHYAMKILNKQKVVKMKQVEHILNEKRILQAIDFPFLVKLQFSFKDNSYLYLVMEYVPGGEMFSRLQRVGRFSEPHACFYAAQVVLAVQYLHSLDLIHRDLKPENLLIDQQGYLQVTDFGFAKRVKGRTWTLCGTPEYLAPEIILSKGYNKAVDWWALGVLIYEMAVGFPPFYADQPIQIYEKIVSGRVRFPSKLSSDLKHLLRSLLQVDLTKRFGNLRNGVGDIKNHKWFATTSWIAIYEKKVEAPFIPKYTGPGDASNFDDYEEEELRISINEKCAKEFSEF
# Sequence of Citron Rho-interacting kinase (Homo sapiens) (O14578 whole entry): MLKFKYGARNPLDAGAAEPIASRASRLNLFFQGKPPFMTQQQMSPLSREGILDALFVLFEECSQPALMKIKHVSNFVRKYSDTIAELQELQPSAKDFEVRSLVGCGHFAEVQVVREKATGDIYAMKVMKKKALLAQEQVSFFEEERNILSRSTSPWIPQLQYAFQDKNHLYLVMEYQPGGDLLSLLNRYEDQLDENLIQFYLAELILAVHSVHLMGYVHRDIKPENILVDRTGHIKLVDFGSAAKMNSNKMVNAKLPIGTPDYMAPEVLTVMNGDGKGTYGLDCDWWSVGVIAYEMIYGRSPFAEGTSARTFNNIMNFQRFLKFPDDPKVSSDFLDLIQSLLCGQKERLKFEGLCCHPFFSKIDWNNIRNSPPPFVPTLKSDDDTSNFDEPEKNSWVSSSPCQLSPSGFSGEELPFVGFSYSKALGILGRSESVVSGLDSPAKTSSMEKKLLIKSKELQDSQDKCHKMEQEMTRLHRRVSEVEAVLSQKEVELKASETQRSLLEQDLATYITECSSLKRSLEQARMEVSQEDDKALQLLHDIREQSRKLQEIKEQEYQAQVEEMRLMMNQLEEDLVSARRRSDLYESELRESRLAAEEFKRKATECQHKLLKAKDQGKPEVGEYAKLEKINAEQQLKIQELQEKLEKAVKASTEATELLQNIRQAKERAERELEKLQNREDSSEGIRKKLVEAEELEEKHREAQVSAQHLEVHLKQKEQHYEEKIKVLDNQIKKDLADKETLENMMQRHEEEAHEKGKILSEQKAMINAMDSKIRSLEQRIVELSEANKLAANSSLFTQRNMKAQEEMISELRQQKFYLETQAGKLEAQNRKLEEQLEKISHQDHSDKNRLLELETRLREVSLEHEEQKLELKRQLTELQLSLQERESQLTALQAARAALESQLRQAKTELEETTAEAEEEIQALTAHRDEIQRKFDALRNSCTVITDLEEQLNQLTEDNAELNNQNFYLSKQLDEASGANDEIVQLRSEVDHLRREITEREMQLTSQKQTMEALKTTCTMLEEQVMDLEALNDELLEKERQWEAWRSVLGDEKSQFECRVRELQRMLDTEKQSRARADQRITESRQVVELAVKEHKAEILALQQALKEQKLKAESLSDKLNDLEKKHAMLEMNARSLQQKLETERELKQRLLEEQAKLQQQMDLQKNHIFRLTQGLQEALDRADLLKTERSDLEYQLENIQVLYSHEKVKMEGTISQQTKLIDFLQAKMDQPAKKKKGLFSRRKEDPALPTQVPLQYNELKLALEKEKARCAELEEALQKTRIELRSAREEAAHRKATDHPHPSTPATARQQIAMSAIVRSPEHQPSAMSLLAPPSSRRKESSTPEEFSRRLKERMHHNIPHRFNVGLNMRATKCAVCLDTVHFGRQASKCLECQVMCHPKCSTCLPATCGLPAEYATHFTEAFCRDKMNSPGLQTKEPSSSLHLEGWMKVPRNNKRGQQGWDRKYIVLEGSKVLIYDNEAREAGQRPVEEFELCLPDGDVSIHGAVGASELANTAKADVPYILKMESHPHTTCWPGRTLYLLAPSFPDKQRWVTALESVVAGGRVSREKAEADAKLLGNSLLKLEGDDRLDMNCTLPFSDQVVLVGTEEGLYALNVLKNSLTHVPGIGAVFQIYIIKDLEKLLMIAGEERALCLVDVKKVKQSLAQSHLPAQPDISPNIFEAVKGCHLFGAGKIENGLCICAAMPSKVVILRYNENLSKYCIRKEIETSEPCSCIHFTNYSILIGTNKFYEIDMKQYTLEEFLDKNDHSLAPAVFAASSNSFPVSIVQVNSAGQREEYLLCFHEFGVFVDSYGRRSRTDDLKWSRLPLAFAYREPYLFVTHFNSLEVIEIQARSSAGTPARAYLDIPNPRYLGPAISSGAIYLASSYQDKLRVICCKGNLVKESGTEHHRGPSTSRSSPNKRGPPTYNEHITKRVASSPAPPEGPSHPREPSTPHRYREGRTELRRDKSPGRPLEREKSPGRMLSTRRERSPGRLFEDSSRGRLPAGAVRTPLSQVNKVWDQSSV
# Sequence of Serine/threonine-protein kinase N2 (Homo sapiens) (Q16513 whole entry, looked up): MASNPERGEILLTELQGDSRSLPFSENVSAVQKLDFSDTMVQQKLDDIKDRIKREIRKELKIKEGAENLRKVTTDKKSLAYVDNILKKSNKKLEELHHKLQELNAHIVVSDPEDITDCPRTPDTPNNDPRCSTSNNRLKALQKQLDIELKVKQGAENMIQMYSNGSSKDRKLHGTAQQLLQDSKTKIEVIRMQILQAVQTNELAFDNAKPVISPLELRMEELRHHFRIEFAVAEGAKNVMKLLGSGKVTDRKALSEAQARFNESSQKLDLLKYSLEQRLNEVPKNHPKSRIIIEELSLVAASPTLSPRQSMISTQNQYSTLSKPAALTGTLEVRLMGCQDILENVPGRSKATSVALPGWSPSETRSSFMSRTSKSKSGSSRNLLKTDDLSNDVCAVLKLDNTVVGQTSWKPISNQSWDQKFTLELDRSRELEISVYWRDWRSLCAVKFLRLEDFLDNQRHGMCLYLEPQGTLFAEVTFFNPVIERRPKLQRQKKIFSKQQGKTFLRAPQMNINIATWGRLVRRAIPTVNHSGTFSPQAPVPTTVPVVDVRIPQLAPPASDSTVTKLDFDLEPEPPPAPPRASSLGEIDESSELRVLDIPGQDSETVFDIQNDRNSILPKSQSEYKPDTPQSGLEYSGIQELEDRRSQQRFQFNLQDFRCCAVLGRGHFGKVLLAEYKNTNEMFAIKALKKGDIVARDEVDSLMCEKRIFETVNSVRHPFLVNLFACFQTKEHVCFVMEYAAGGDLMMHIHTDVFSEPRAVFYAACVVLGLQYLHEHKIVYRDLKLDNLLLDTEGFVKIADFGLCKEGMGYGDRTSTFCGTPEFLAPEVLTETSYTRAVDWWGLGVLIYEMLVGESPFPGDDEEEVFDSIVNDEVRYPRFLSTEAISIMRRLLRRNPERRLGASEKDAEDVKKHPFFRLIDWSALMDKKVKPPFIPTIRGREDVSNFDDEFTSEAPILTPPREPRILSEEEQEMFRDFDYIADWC
# Sequence of Homeodomain-interacting protein kinase 2 (Homo sapiens) (Q9H2X6 whole entry, looked up): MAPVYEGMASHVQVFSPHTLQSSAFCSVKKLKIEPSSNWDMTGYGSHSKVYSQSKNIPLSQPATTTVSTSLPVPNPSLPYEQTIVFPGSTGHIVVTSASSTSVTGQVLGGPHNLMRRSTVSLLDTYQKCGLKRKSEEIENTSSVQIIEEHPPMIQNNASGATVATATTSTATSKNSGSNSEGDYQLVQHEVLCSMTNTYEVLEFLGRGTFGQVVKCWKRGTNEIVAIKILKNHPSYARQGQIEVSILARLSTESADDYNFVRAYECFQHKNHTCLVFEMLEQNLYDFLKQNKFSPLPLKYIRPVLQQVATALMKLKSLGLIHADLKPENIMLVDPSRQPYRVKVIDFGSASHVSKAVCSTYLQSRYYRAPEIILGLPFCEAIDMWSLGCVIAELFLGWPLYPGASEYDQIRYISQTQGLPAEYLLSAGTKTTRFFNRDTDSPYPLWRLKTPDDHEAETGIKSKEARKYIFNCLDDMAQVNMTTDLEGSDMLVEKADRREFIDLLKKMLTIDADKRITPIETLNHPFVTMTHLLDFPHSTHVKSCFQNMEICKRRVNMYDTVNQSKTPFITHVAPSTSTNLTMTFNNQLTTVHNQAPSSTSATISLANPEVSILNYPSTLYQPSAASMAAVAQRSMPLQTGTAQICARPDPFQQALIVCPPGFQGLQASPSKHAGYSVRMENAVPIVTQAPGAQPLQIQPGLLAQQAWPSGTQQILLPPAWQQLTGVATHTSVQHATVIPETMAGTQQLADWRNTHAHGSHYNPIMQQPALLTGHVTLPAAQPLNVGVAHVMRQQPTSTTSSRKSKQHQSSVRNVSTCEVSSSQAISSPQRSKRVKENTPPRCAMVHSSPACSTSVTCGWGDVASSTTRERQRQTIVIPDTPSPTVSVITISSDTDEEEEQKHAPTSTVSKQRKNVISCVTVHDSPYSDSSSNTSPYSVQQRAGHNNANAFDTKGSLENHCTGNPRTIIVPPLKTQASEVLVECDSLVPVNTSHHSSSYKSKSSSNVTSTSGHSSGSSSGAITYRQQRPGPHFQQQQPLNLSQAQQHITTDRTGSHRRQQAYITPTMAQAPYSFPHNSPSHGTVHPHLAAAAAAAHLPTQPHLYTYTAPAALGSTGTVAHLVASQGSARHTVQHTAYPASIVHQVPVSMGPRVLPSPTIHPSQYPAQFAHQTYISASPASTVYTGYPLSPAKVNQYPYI
# Sequence of Megakaryocyte-associated tyrosine-protein kinase (Homo sapiens) (P42679 whole entry): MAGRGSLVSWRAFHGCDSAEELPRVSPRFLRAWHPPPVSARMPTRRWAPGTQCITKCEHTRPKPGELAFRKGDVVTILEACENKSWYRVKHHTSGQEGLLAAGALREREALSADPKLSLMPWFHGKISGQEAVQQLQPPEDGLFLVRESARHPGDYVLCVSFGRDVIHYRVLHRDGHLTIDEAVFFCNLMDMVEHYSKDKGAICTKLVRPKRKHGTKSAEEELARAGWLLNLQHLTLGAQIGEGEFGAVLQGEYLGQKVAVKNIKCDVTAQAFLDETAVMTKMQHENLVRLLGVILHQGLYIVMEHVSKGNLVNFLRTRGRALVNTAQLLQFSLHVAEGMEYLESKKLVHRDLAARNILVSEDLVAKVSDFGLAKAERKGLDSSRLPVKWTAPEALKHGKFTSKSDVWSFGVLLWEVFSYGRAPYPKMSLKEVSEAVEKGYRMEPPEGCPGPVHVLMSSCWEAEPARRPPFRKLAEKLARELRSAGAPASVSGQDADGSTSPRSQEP
structure (smiles),measurement,setting,value
OCCOCc1cn(CCNc2nonc2/C(=N/O)Nc2ccc(F)c(Br)c2)nn1,inhibition,[1],inactive
same,inhibition,PBMC,Active
same,inhibition,[2],inactive
same,inhibition,[3],inactive
same,inhibition,[4],inactive
same,inhibition,Mus musculus [5],Active
same,inhibition,[6],inactive
same,inhibition,[7],inactive
same,inhibition,[8],inactive
same,inhibition,[9],inactive
same,inhibition,[10],inactive
same,fraction unbound,[11],0.0763
same,inhibition,[12],inactive
same,inhibition,[13],inactive
same,inhibition,[14],inactive
same,inhibition,[15],inactive
same,inhibition,[16],inactive
same,Activity,HeLa,Active
same,inhibition,[17],inactive
same,inhibition,[18],inactive
same,inhibition,[19],inactive
same,inhibition,[20],inactive
same,inhibition,[21],inactive
same,inhibition,[22],inactive
same,k el,[23],0.00025 s⁻¹
same,inhibition,[24],inactive
same,inhibition,[25],inactive
same,inhibition,[26],inactive
same,microsomal CLint,[27],36 µL/min/mg
same,pIC50,CT26,4.21
same,Activity,HCT-116 [28],3.84%
same,inhibition,[29],inactive
same,fraction unbound,[30],0.0498
same,inhibition,[31],inactive
same,inhibition,[32],inactive
same,half-life,[33],21.2 min
same,inhibition,[34],inactive
same,inhibition,[35],inactive
same,inhibition,[36],inactive
same,inhibition,[37],inactive
same,inhibition,[38],inactive
same,inhibition,Mus musculus [39],Active
same,Activity,HCT-116 [40],0.73%
